Measurements published in patent publication US8546593B2, “Methods and compositions for novel liquid crystal delivery systems” (Copperhead Chemical Company, Inc., priority 2009, dated 2013).
In brackets after ≈: the same amount, converted by molar mass.

Tested on: Staphylococcus aureus
Test: Minimum inhibitory concentration against Staphylococcus aureus
Format: cell-based
Details: read-out: minimum inhibitory concentration (MIC)

CCCCCCCCCCCC(=O)OCC(O)CO (stereo not shown) [glycerol monolaurate]
MIC: 55 µg/mL (≈ 200 µM)
